The values below come from ChEMBL document CHEMBL1147288, “Isolation of flavonoids and a chalcone from Helichrysum odoratissimum and synthesis of helichrysetin” (1989).

The subject of one experiment is Enterobacter cloacae. The experiment is described as follows: Antibacterial activity against Enterobacter cloacae ATCC 23355 after 24 to 48 hrs at 37 degC by liquid dilution method. In kind it is functional.
For another experiment, the system named is Escherichia coli. The experiment can be described thus: Antibacterial activity against Escherichia coli ATCC 25922 after 24 to 48 hrs at 37 degC by liquid dilution method. In kind it is functional.
The subject of another experiment is Klebsiella pneumoniae. The experiment is described as follows: Antibacterial activity against Klebsiella pneumoniae ATCC 13883 after 24 to 48 hrs at 37 degC by liquid dilution method. In kind it is functional.
The next experiment relates to Proteus vulgaris. The experiment is described as follows: Antibacterial activity against Proteus vulgaris […] after 24 to 48 hrs at 37 degC by liquid dilution method. In kind it is functional.
In a further experiment the test system is Pseudomonas aeruginosa. The experiment can be described thus: Antibacterial activity against Pseudomonas aeruginosa ATCC 27853 after 24 to 48 hrs at 37 degC by liquid dilution method. In kind it is functional.
A further experiment relates to Ralstonia solanacearum. The experiment is described as follows: Antibacterial activity against Pseudomonas solanacearum after 24 to 48 hrs at 37 degC by liquid dilution method. In kind it is functional.
The subject of a further experiment is Salmonella typhimurium. The experiment can be described thus: Antibacterial activity against Salmonella Typhimurium ATCC 14028 after 24 to 48 hrs at 37 degC by liquid dilution method. In kind it is functional, Salmonella enterica subsp. enterica serovar Typhimurium. The settings on record: Salmonella enterica.
The next experiment concerns Serratia marcescens. The experiment is described as follows: Antibacterial activity against Serratia marcescens ATCC 8100 after 24 to 48 hrs at 37 degC by liquid dilution method. In kind it is functional.
Another experiment deals with Shigella dysenteriae. The experiment is described as follows: Antibacterial activity against Shigella dysenteriae after 24 to 48 hrs at 37 degC by liquid dilution method. In kind it is functional.
The next experiment has as its system Bacillus subtilis. The experiment can be described thus: Antibacterial activity against Bacillus subtilis ATCC 6633 after 24 to 48 hrs at 37 degC by liquid dilution method. In kind it is functional.
Experiment [1] has as its system Mycolicibacterium smegmatis. The experiment can be described thus: Antibacterial activity against Mycobacterium smegmatis ATCC 607 after 24 to 48 hrs at 37 degC by liquid dilution method. In kind it is functional.
The subject of the next experiment is Staphylococcus aureus. The experiment can be described thus: Antibacterial activity against Staphylococcus aureus […] after 24 to 48 hrs at 37 degC by liquid dilution method. In kind it is functional.
The test system of the next experiment is Streptococcus pyogenes. The experiment is described as follows: Antibacterial activity against Streptococcus pyogenes ATCC 19651 after 24 to 48 hrs at 37 degC by liquid dilution method. In kind it is functional.
A further experiment relates to Aspergillus flavus. The experiment is described as follows: Antifungal activity against Aspergillus flavus after 7 days at 27 degC by liquid dilution method. In kind it is functional.
A further experiment has as its system Candida albicans. The experiment is described as follows: Antifungal activity against Candida albicans CBS 562 after 24 to 48 hrs at 37 degC by liquid dilution method. In kind it is functional.
In a further experiment the test system is Epidermophyton floccosum. The experiment is described as follows: Antifungal activity against Epidermophyton floccosum after 7 days at 27 degC by liquid dilution method. In kind it is functional.
The subject of the next experiment is Microsporum canis. The experiment is described as follows: Antifungal activity against Microsporum canis after 7 days at 27 degC by liquid dilution method. In kind it is functional.
A further experiment relates to Paecilomyces. The experiment can be described thus: Antifungal activity against Paecilomyces after 7 days at 27 degC by liquid dilution method. In kind it is functional.

Converted amounts (≈) assume the structure as drawn.

As a reminder, the MIC is the lowest concentration found to suppress growth. The low end stands for inhibition by little substance, the high end for a need for much substance. `CN(C)[C@@H]1C(O)=C(C(N)=O)C(=O)[C@@]2(O)C(O)=C3C(=O)c4c(O)cccc4[C@@](C)(O)[C@H]3C[C@@H]12.Cl` [TETRACYCLINE HYDROCHLORIDE]: the MIC amounted to 12.5 µg/mL against Enterobacter cloacae; 6.25 µg/mL in the experiment with Escherichia coli; 12.5 µg/mL against Klebsiella pneumoniae; 25 µg/mL against Proteus vulgaris; 100 µg/mL with Pseudomonas aeruginosa; 100 µg/mL in the experiment with Ralstonia solanacearum. Further, the MIC is 12.5 µg/mL in the experiment with Salmonella typhimurium; 25 µg/mL against Serratia marcescens; 0.78 µg/mL with Shigella dysenteriae; 3.12 µg/mL with Bacillus subtilis; 100 µg/mL in experiment [1]; 100 µg/mL in the experiment on Staphylococcus aureus. In the experiment with Streptococcus pyogenes, it took 6.25 µg/mL to inhibit growth (MIC).
As to `COc1c(-c2ccc(O)c(O)c2)oc2cc(O)cc(O)c2c1=O` [3-O-METHYLQUERCETIN], the MIC against Enterobacter cloacae, in the experiment on Escherichia coli, against Klebsiella pneumoniae, in the experiment on Proteus vulgaris, in the experiment with Pseudomonas aeruginosa and in the experiment with Ralstonia solanacearum was 100 µg/mL (≈ 316 µM) throughout. Moreover, the MIC turned out to be 50 µg/mL (≈ 158 µM) against Salmonella typhimurium; 100 µg/mL (≈ 316 µM) in the experiment on Serratia marcescens; 100 µg/mL (≈ 316 µM) with Shigella dysenteriae; 50 µg/mL (≈ 158 µM) against Bacillus subtilis; 100 µg/mL (≈ 316 µM) in [1]; 6.25 µg/mL (≈ 19.8 µM) in the experiment on Staphylococcus aureus. Moreover, the minimal inhibitory concentration (MIC) is 100 µg/mL (≈ 316 µM) in the experiment on Streptococcus pyogenes; 100 µg/mL (≈ 316 µM) against Aspergillus flavus (168 h); 12.5 µg/mL (≈ 39.5 µM) in the experiment with Candida albicans; 100 µg/mL (≈ 316 µM) against Epidermophyton floccosum (168 h); 100 µg/mL (≈ 316 µM) with Microsporum canis (168 h); 100 µg/mL (≈ 316 µM) in the experiment on Paecilomyces (168 h).
NYSTATIN: the MIC against Aspergillus flavus came to 12.5 µg/mL; against Candida albicans, 0.78 µg/mL; in the experiment with Epidermophyton floccosum, 100 µg/mL; against Microsporum canis it was 50 µg/mL; with Paecilomyces, 50 µg/mL.
